For series [1], the system named is RAW264.7 macrophages. Briefly: Transwell migration, osteopontin-coated membrane. The settings on record: AubipyOMe 80 nM, 5-PNA 100 μM. It is filed as cell-based, mouse. As for the experimental part: Migration of RAW264.7 macrophages was assessed using a transwell-culturing system with inserts (Sigma-Aldrich) coated with osteopontin (10 μg/ml, R&D). Bovine collagen-coated inserts (10 μg/ml, Advanced Biometrix, Carlsbad, USA) were used as matrix control. Cells were incubated with or without RANKL (200 ng/ml) for 72 hours to induce TRAP activity or not[75], in the presence or absence of AubipyOMe (80 nM) in quadruplicate. The previously described TRAP inhibitor 5-PNA (100 μM) was used as selective positive control for TRAP inhibition[15],[23]. The number of cells migrated to the lower well, including dead cells, was calculated relative to control cells and individual experiments were done at least six times. […]
Transwell experiment to assess macrophage migration
Migration of RAW264.7 macrophages was assessed using a transwell-culturing system with inserts (Sigma-Aldrich) coated with osteopontin (10 µg/ml, R&D). Bovine collagen-coated inserts (Advanced Biometrix, Carlsbad, USA) were used as a matrix control. RAW264.7 macrophages, pre-stimulated with 200 ng/ml RANKL for 72h to induce TRAP activity16, were seeded on 8 µm pore inserts coated with osteopontin (10 µg/ml, 250,000 cells/well) or collagen (10 μg/ml, 250,000 cells/well). Cells were cultured for 16h in the presence or absence of AubipyOMe (80 nM) in quadruplicate. The previously described TRAP inhibitor 5-PNA (100 µM) was used as selective positive control for TRAP inhibition12,17. The number of cells migrated to the lower well, including dead cells, was calculated relative to control cells and individual experiments were done at least six times. […]

Series [2] deals with RAW264.7 macrophages. Description: MTT assay. The series is classed as cell-based, mouse. As for the experimental part: The effect of AubipyOMe and NaAuCl4 on RAW264.7 cell growth was assessed with a classical MTT assay. The IC50 values were calculated using nonlinear curve fitting with a variable slope in Graphpad Prism 6 (Graphpad Software) An average IC50 of four independent experiments was calculated.
AubipyOMe was tested in the range 0-40 μM with MPI cell lysates or pooled lung tissue lysates from COPD patients using a TRAP activity assay. MPI lysates were diluted 1:1 and COPD tissue lysates 1:20 with acetate buffer and incubated with increasing concentrations inhibitor, that were prepared from freshly made stock solutions (10 mM in DMSO) and diluted with acetate buffer. Lysates were incubated at 37° C for 30 min in the presence of PNPP solution (1:1 ratio). 1M NaOH was added to stop the reaction and absorption was measured at 410 nm with 490 nm as a reference value.
The inhibitory effects of gold compounds were calculated as the ratio of absorbance between the treated and untreated wells. The IC50 values were calculated using nonlinear curve fitting with a variable slope in Graphpad Prism 6 (Graphpad Software, la Jolla, USA). An average IC50 of three independent experiments was calculated.
The effect of AubipyOMe and NaAuCl4 on cell growth was assessed with a classical MTT assay.
RAW264.7 macrophages were seeded in 96-well plates at a concentration of 10,000 cells/well and grown for 24h in complete medium. Compound dilutions were prepared in complete medium from a freshly prepared stock solution (10 mM in DMSO) and added to the wells (200 μl) to obtain a final concentration (0 to 100 μM). […] The optical density of each well was quantified in quadruplicate at 540 nm, using a multi-well plate reader, and the percentage of surviving cells was calculated from the ratio of absorbance between treated and untreated cells. The IC50 values were calculated using nonlinear curve fitting with a variable slope in Graphpad Prism 6 (Graphpad Software) An average
(Formazan colour is commonly taken as a measure of viable cells.)

The values below come from article PMC5626781, “A Potent Tartrate Resistant Acid Phosphatase Inhibitor to Study the Function of TRAP in Alveolar Macrophages” (Scientific Reports, 2017).

One may read the IC50 as the point on the concentration scale where inhibition reaches its midpoint. On to `COc1ccnc(-c2cc(OC)ccn2)c1.F[P-](F)(F)(F)(F)F.[Cl][Au+][Cl]` [AubipyOMe, [Au(4,4′-dimethoxy-2,2′-bipyridine)Cl2][PF6]], for which the “migration of RANKL-pretreated macrophages through osteopontin-coated membrane” value in the series with RAW264.7 macrophages [1] (RANKL 200 ng/ml 72 h, versus RANKL alone) is reported as “significantly less migration”. For the same compound, the “migration through osteopontin-coated membrane, inhibitor alone” value in the series with RAW264.7 macrophages [1] (no RANKL) is “did not affect migration”. In the series with RAW264.7 macrophages [2] (RAW264.7 macrophages, 72 h, n = 4, read-out: IC50 cytotoxicity), the IC50 is ~35 µM. In addition, the “cytotoxic effects on RAW264.7 macrophages” value in the series on RAW264.7 macrophages [2] (at concentrations around the TRAP IC50 values) is “no cytotoxic effects”.
